After the bases stand the sugars from the 5' end (letter, count) and the backbone: PS all phosphorothioate, else s phosphorothioate and o phosphodiester by linkage. Methylation of C is not given here. l = locked nucleic acid (LNA); d = 2'-deoxy (DNA)
Target: SNHG14
Conditions: ASO
[1] = Mouse Primary Neuronal Cell, 0.005 µM

| Sequence | target mRNA inhibition (Human Neuronal Cell, 0.2 µM) [%] | target mRNA inhibition (Human Neuronal Cell, 1 µM) [%] | target mRNA inhibition (Human Neuronal Cell, 7.5 µM) [%] | also measured |
| --- | --- | --- | --- | --- |
| CCATGCTACATAAACC (sugars l4 d10 l2, PS) | 36 | 50 | – | – |
| ATCATTCTCAACAATTAA (sugars l4 d8 l6, PS) | – | – | 44 | – |
| TACATCTCATACTTGCT (sugars l2 d13 l2, PS) | 9 | 23 | – | target mRNA inhibition (Human Neuronal Cell, 5 µM): -10%; target mRNA inhibition [1]: 84.5% |
| CACTGATTTCCTTAAAC (sugars l4 d11 l2, PS) | 40 | 43 | – | – |
| TTCTACTATACTTTCCTCT (sugars l1 d14 l1 d1 l2, PS) | – | – | 50 | – |
| TTCTGTATACACCATCC (sugars l1 d12 l1 d1 l2, PS) | – | – | 62 | – |
| ACTCTGCAATACACCAA (sugars l1 d1 l2 d10 l3, PS) | – | – | 63 | – |
| TACTCTGCAATACACCA (sugars l2 d11 l4, PS) | 57 | 71 | – | – |
| AAATTATTTATACACCATCA (sugars ldddlldddddddldldlll, PS) | – | – | 67 | – |
| TGAACAACTTCTATCA (sugars l3 d10 l3, PS) | 17 | 16 | – | – |
| AAACTTTCCCAACATTAT (sugars l2 d12 l4, PS) | 35 | 49 | – | – |
| ACCTACATCTCATACT (sugars l2 d12 l2, PS) | -16 | 8 | – | target mRNA inhibition (Human Neuronal Cell, 5 µM): 0%; target mRNA inhibition [1]: 85.7% |
| AGTTCTACTATACTTTC (sugars l3 d11 l3, PS) | – | – | 57 | – |
| TCTTTCCATTTATTTCCATT (sugars l2 d13 l1 d2 l2, PS) | – | – | 42 | – |
| GATCATTCTCAACAATTA (sugars ldllldddddddldldll, PS) | – | – | 35 | – |
| ACTCCTAAGAATTACA (sugars l4 d10 l2, PS) | 34 | 34 | – | – |
| ATTTAAATTTCCAAACATT (sugars l2 d13 l4, PS) | 11 | -17 | – | – |
| ACTGTTTATACCCTTTC (sugars l1 d2 l1 d9 l4, PS) | – | – | 45 | – |
| ATTTACACTTAATTATACTT (sugars llddlllddddddlddllll, PS) | – | – | 38 | – |
| TTTACATTGACACCTA (sugars l2 d10 l4, PS) | 20 | 31 | – | – |
| ACTCTGCAATACACCAA (sugars ldddldddddddldlll, PS) | – | – | 66 | – |
| ATCATTTCATATTACTA (sugars l3 d11 l3, PS) | 43 | 56 | – | – |

| Sequence | target mRNA inhibition (Human Neuronal Cell, 0.2 µM) [%] | target mRNA inhibition (Human Neuronal Cell, 1 µM) [%] | target mRNA inhibition (Human Neuronal Cell, 7.5 µM) [%] | also measured |
| --- | --- | --- | --- | --- |
| CCAACATAGATCCTCT (sugars l2 d10 l4, PS) | 55 | 67 | – | – |
| AAAATCTCAACTACCATTTT (sugars l1 d12 l4 d1 l2, PS) | – | – | 42 | – |
| GTTCTACTATACTTTCCTC (sugars lddddldddddddddldll, PS) | – | – | 55 | – |
| TCTTTCCATTTATTTCCA (sugars l4 d12 l2, PS) | 53 | 60 | – | – |
| TTTATTTCCATTTATTTTCA (sugars ldddlldddddddddlldll, PS) | – | – | 65 | – |
| TCTTTCCATTTATTTCCATT (sugars l2 d3 l1 d12 l2, PS) | – | – | 47 | – |
| TGTTTCCATCTACTATTA (sugars ldldddddddddddldll, PS) | – | – | 61 | – |
| TTTCCATTTATTTCCATTTA (sugars l2 d2 l1 d12 l3, PS) | – | – | 62 | – |
| TTCTTGTTTATCCCAA (sugars l2 d10 l4, PS) | 67 | 71 | – | – |
| CAAAGATCATTCTCAACA (sugars l1 d1 l2 d8 l6, PS) | – | – | 58 | – |
| TTCTACTATACTTTCCTCT (sugars ldddlddddddddddldll, PS) | – | – | 53 | – |
| TTATAGCCATTCTATCT (sugars llddlddddddlddlll, PS) | – | – | 39 | – |
| ATTTTTTTCTTACTATCTTC (sugars ldlllddddddddlddddll, PS) | – | – | 56 | – |
| GCACATTCTTTCTATACC (sugars ldldlldddddddldlll, PS) | – | – | 51 | – |
| ACATGTCCCTTTATATT (sugars l2 d13 l2, PS) | -12 | 8 | – | target mRNA inhibition (Human Neuronal Cell, 5 µM): 21%; target mRNA inhibition [1]: 85.2% |
| AGCAACATTATTAACCACC (sugars lddddlddddddlldddll, PS) | – | – | 45 | – |
| TGTTTATACCCTTTCCAA (sugars ldddldddddddddldll, PS) | – | – | 58 | – |
| TTCTGTATACACCATCC (sugars l1 d14 l2, PS) | – | – | 46 | – |
| TCTTTAAGCTTCCCAC (sugars l2 d10 l4, PS) | 34 | 44 | – | – |
| TCCAACATAGATCCTC (sugars l2 d10 l4, PS) | 52 | 65 | – | – |
| CTCTTTGTCAAATACT (sugars l4 d10 l2, PS) | 33 | 13 | – | – |
| TTCTACTATACTTTCCTCT (sugars ldlddddddddddddldll, PS) | – | – | 63 | – |

| Sequence | target mRNA inhibition (Human Neuronal Cell, 0.2 µM) [%] | target mRNA inhibition (Human Neuronal Cell, 1 µM) [%] | target mRNA inhibition (Human Neuronal Cell, 7.5 µM) [%] | also measured |
| --- | --- | --- | --- | --- |
| TCCATAGAATTCTTCA (sugars l4 d10 l2, PS) | 51 | 43 | – | – |
| CTCCATATTTAAATCC (sugars l4 d10 l2, PS) | 8 | 21 | – | – |
| TACACTTAATTATACTTCCA (sugars lddddldddddddldlddll, PS) | – | – | 60 | – |
| CTTTCCATTTATTTCCATTT (sugars l1 d13 l1 d3 l2, PS) | – | – | 35 | – |
| TATTTGTCACCAAACC (sugars l3 d10 l3, PS) | 23 | -2 | – | – |
| ACTTTACTGCCATAATC (sugars l3 d11 l3, PS) | 40 | 33 | – | – |
| TAAAATTATTTATACACCA (sugars lllldlddddddllddlll, PS) | – | – | 31 | – |
| TTCCATTTATTTCCATTTAT (sugars ldlddlddddddddldldll, PS) | – | – | 63 | – |
| TCTGTATACACCATCCC (sugars l2 d13 l2, PS) | – | – | 62 | – |
| TATTGATTCAATTCCCT (sugars l2 d9 l1 d2 l3, PS) | – | – | 51 | – |
| TCCATTTATTTCCATTTATT (sugars ldlldddddddddlddddll, PS) | – | – | 46 | – |
| AGCAACATTATTAACCAC (sugars ldllldddddddlldlll, PS) | – | – | 26 | – |
| TTATAGCCATTCTATCT (sugars l2 d1 l2 d10 l2, PS) | – | – | 64 | – |
| TTTTAACCAGAGTGGCA (sugars l3 d11 l3, PS) | – | – | 56 | – |
| TACATTGACACCTAAT (sugars l4 d10 l2, PS) | 19 | 17 | – | – |
| TTTTTTTCTTACTATCTTCA (sugars lldldddddddddlddddll, PS) | – | – | 49 | – |
| GAAACTATTACTCCTA (sugars l2 d10 l4, PS) | 44 | 55 | – | – |
| CTCCTTTATGACTCCAA (sugars l4 d11 l2, PS) | 41 | 59 | – | – |
| CAACATTATTAACCACCTTA (sugars l1 d2 l2 d13 l2, PS) | – | – | 47 | – |
| GCTTTTAACCAGAGTGG (sugars l1 d12 l4, PS) | – | – | 73 | – |
| TTCAACCCTAATCACT (sugars l4 d10 l2, PS) | 39 | 50 | – | – |
| CATCTGCTACATATTC (sugars l4 d10 l2, PS) | 49 | 58 | – | – |

| Sequence | target mRNA inhibition (Human Neuronal Cell, 0.2 µM) [%] | target mRNA inhibition (Human Neuronal Cell, 1 µM) [%] | target mRNA inhibition (Human Neuronal Cell, 7.5 µM) [%] | also measured |
| --- | --- | --- | --- | --- |
| TATTGATATTTACTCT (sugars l2 d10 l4, PS) | 30 | 38 | – | – |
| CTCTGCAATACACCAA (sugars l2 d10 l4, PS) | 54 | 55 | – | – |
| TTATAGCCATTCTATCT (sugars ldddlddddddldldll, PS) | – | – | 5 | – |
| TAAAATTATTTATACACCA (sugars lldlldddddddldldlll, PS) | – | – | 47 | – |
| CTGTTTATACCCTTTCCA (sugars l1 d4 l1 d10 l2, PS) | – | – | 58 | – |
| GTTTATACCCTTTCCA (sugars l2 d11 l3, PS) | 49 | 58 | – | – |
| TCCAAACTGTCTTCTAA (sugars l3 d12 l2, PS) | 36 | 23 | – | – |
| TCCTATGTTAATACTT (sugars l3 d10 l3, PS) | 14 | 34 | – | – |
| TTACTCTGCAATACACC (sugars l2 d11 l4, PS) | 55 | 57 | – | – |
| AAAATCTCAACTACCATTTT (sugars lllldldddddddlddllll, PS) | – | – | 14 | – |
| TTCTACTATACTTTCCTCT (sugars lddddlddddddddlddll, PS) | – | – | 57 | – |
| TTCACCAGTATTTCTTC (sugars l4 d11 l2, PS) | 36 | 32 | – | – |
| GAAAATCTCAACTACCATT (sugars ldllldddddddlddllll, PS) | – | – | 57 | – |
| TTTATTTCCATTTATTTTCA (sugars lddddldddddddldlddll, PS) | – | – | 46 | – |
| AAACTACCCTGCACAA (sugars l3 d10 l3, PS) | 22 | 39 | – | – |
| TAAAATTATTTATACACCA (sugars l3 d1 l2 d9 l4, PS) | – | – | 59 | – |
| TACTCTGCAATACACC (sugars l2 d1 l2 d9 l2, PS) | – | – | 64 | – |
| CAAAGATCATTCTCAACA (sugars lllldldddddddlddll, PS) | – | – | 63 | – |
| TTTACACTTAATTATACTTC (sugars lldllddddddddldlllll, PS) | – | – | 29 | – |
| CCTCTGACAACCATTA (sugars l4 d10 l2, PS) | 30 | 31 | – | – |
| ATTGATTCAATTCCCTT (sugars ldddldddddddlldll, PS) | – | – | 57 | – |
| TTATAGCCATTCTATCT (sugars lddllddddddldddll, PS) | – | – | 50 | – |
